In PubChem BioAssay AID2060899 (Molecular Pharmacology Branch, DTP, NCI, 2025):

Test system: 565726-208-R1-J5-PDC complex spheroids, growth inhibition
Assay: Anticancer human tumor 565726-208-R1-J5-PDC patient-derived pancreatic adenocarcinoma cell line growth inhibition [RAS]
Conditions: for IC50: curve of first compound; for viability, T/C: stronger effect = lower value; active means viability on the fitted dose curve at most 10% of control; inactive means the rest
Procedure, shortened: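 Multi-cell-type spheroids: tumor cells plus HUVEC endothelial cells and mesenchymal stem cells. RAS-pathway inhibitors were combined with targeted agents, each dosed in half-log steps down from clinical Cmax, or from 10 microM when Cmax was unknown.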
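Further: spheroids exposed to compounds for seven days before readout.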
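Wherever viability, T/C is given: 100% = DMSO vehicle control viability.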

CC(Nc1ccc2c(c1)OCCn1cc(N3C(=O)OCC3C(F)F)nc1-2)C(N)=O (centres undefined) + C=CC(=O)N1CCN(c2nc(OCC3CCCN3C)nc3c(F)c(-c4nc(N)cc(C)c4C(F)(F)F)c(Cl)cc23)C(C)C1
inactive: viability, T/C (second compound 0.00316 µM, first compound 0.0316 µM) 87.9% | viability, T/C (second compound 0.00316 µM, first compound 0.1 µM) 124% | viability, T/C (second compound 0.00316 µM, first compound 0.316 µM) 93.7% | viability, T/C (second compound 0.00316 µM, first compound 1 µM) 67.5% | viability, T/C (second compound 0.00316 µM, first compound 3.16 µM) 92.8% | viability, T/C (second compound 0.00316 µM, first compound 10 µM) 86.4% | viability, T/C (second compound 0.01 µM, first compound 0.0316 µM) 95.4% | viability, T/C (second compound 0.01 µM, first compound 0.1 µM) 139% | viability, T/C (second compound 0.01 µM, first compound 0.316 µM) 79.8% | viability, T/C (second compound 0.01 µM, first compound 1 µM) 66% | viability, T/C (second compound 0.01 µM, first compound 3.16 µM) 100% | viability, T/C (second compound 0.01 µM, first compound 10 µM) 89% | viability, T/C (second compound 0.0316 µM, first compound 0.0316 µM) 121% | viability, T/C (second compound 0.0316 µM, first compound 0.1 µM) 128% | viability, T/C (second compound 0.0316 µM, first compound 0.316 µM) 78.6% | viability, T/C (second compound 0.0316 µM, first compound 1 µM) 67.9% | viability, T/C (second compound 0.0316 µM, first compound 3.16 µM) 104% | viability, T/C (second compound 0.0316 µM, first compound 10 µM) 96.2% | viability, T/C (second compound 0.1 µM, first compound 0.0316 µM) 149% | viability, T/C (second compound 0.1 µM, first compound 0.1 µM) 130% | viability, T/C (second compound 0.1 µM, first compound 0.316 µM) 69.4% | viability, T/C (second compound 0.1 µM, first compound 1 µM) 66.8% | viability, T/C (second compound 0.1 µM, first compound 3.16 µM) 62.7% | viability, T/C (second compound 0.1 µM, first compound 10 µM) 85.1% | viability, T/C (second compound 0.316 µM, first compound 0.0316 µM) 141% | viability, T/C (second compound 0.316 µM, first compound 0.1 µM) 139% | viability, T/C (second compound 0.316 µM, first compound 0.316 µM) 86.3% | viability, T/C (second compound 0.316 µM, first compound 1 µM) 79.8% | viability, T/C (second compound 0.316 µM, first compound 3.16 µM) 66.3% | viability, T/C (second compound 0.316 µM, first compound 10 µM) 102% | viability, T/C (second compound 1 µM, first compound 0.0316 µM) 126% | viability, T/C (second compound 1 µM, first compound 0.1 µM) 147% | viability, T/C (second compound 1 µM, first compound 0.316 µM) 90.2% | viability, T/C (second compound 1 µM, first compound 1 µM) 64.9% | viability, T/C (second compound 1 µM, first compound 3.16 µM) 85.3% | viability, T/C (second compound 1 µM, first compound 10 µM) 89.8%
> 10 µM: IC50 (second compound 0.00316 µM) | IC50 (second compound 0.01 µM) | IC50 (second compound 0.0316 µM) | IC50 (second compound 0.1 µM) | IC50 (second compound 0.316 µM) | IC50 (second compound 1 µM)

C=CC(=O)Nc1cc(Nc2nccc(-c3cn(C)c4ccccc34)n2)c(OC)cc1N(C)CCN(C)C + CCn1c(-c2cccnc2C(C)OC)c2c3cc(ccc31)N1CCOC(CC(NC(=O)C(C(C)C)N(C)C(=O)C3(F)CCN(C(=O)C#CC(C)(C)N(C)C)CC3)C(=O)N3CCCC(N3)C(=O)OCC(C)(C)C2)C1
inactive: viability, T/C (second compound 0.000949 µM, first compound 0.00316 µM) 98.1% | viability, T/C (second compound 0.000949 µM, first compound 0.01 µM) 87.7% | viability, T/C (second compound 0.000949 µM, first compound 0.0316 µM) 93.8% | viability, T/C (second compound 0.000949 µM, first compound 0.1 µM) 79.7% | viability, T/C (second compound 0.000949 µM, first compound 0.316 µM) 78.8% | viability, T/C (second compound 0.000949 µM, first compound 1 µM) 65.2% | viability, T/C (second compound 0.003 µM, first compound 0.00316 µM) 93.4% | viability, T/C (second compound 0.003 µM, first compound 0.01 µM) 91% | viability, T/C (second compound 0.003 µM, first compound 0.0316 µM) 89% | viability, T/C (second compound 0.003 µM, first compound 0.1 µM) 77.1% | viability, T/C (second compound 0.003 µM, first compound 0.316 µM) 76.4% | viability, T/C (second compound 0.003 µM, first compound 1 µM) 57% | viability, T/C (second compound 0.00949 µM, first compound 0.00316 µM) 99.1% | viability, T/C (second compound 0.00949 µM, first compound 0.01 µM) 91.6% | viability, T/C (second compound 0.00949 µM, first compound 0.0316 µM) 83.3% | viability, T/C (second compound 0.00949 µM, first compound 0.1 µM) 73.3% | viability, T/C (second compound 0.00949 µM, first compound 0.316 µM) 78% | viability, T/C (second compound 0.00949 µM, first compound 1 µM) 55.8% | viability, T/C (second compound 0.03 µM, first compound 0.00316 µM) 105% | viability, T/C (second compound 0.03 µM, first compound 0.01 µM) 107% | viability, T/C (second compound 0.03 µM, first compound 0.0316 µM) 94% | viability, T/C (second compound 0.03 µM, first compound 0.1 µM) 81.9% | viability, T/C (second compound 0.03 µM, first compound 0.316 µM) 83.3% | viability, T/C (second compound 0.03 µM, first compound 1 µM) 62.2% | viability, T/C (second compound 0.0949 µM, first compound 0.00316 µM) 96% | viability, T/C (second compound 0.0949 µM, first compound 0.01 µM) 87% | viability, T/C (second compound 0.0949 µM, first compound 0.0316 µM) 92.2% | viability, T/C (second compound 0.0949 µM, first compound 0.1 µM) 78.8% | viability, T/C (second compound 0.0949 µM, first compound 0.316 µM) 81.6% | viability, T/C (second compound 0.0949 µM, first compound 1 µM) 60.2% | viability, T/C (second compound 0.3 µM, first compound 0.00316 µM) 88.1% | viability, T/C (second compound 0.3 µM, first compound 0.01 µM) 78.3% | viability, T/C (second compound 0.3 µM, first compound 0.0316 µM) 86.5% | viability, T/C (second compound 0.3 µM, first compound 0.1 µM) 72.7% | viability, T/C (second compound 0.3 µM, first compound 0.316 µM) 70.8% | viability, T/C (second compound 0.3 µM, first compound 1 µM) 55.7%
> 1 µM: IC50 (second compound 0.000949 µM) | IC50 (second compound 0.003 µM) | IC50 (second compound 0.00949 µM) | IC50 (second compound 0.03 µM) | IC50 (second compound 0.0949 µM) | IC50 (second compound 0.3 µM)
